Measurements: ChEMBL document CHEMBL6121010, “Novel antileukemic compound with sub-micromolar potency against STAT5 addicted myeloid leukemia cells” (Eur J Med Chem, 2025)
Activity calls are given as the source filed them. The rule behind the calls is not given here.

Columns and labels:
KU812 [1] = assay: Downregulation of STAT5A expression in human KU812 cell line by Western blot analysis; assay type: functional, cell-based
MV4-11 [2] = assay: Antiproliferative activity against human MV4-11 cells measured after 72 hrs by MTT assay; assay type: functional, cell-based
[3] = Potency index, ratio of Pimozide EC50 to test compound EC50 for antileukemic activity against human K562 cells assessed as inhibition of cell growth incubated for 48 hrs by MTT assay; assay type: functional
[4] = target: T1, Signal transducer and activator of transcription 5B (Homo sapiens) (UniProt P51692); assay: Inhibition of STAT5B phosphorylation in human Imatinib-resistant K562 cells up to 5 uM incubated for 24 hrs by Western blotting analysis; assay type: cell-based
T1 sequence (whole entry): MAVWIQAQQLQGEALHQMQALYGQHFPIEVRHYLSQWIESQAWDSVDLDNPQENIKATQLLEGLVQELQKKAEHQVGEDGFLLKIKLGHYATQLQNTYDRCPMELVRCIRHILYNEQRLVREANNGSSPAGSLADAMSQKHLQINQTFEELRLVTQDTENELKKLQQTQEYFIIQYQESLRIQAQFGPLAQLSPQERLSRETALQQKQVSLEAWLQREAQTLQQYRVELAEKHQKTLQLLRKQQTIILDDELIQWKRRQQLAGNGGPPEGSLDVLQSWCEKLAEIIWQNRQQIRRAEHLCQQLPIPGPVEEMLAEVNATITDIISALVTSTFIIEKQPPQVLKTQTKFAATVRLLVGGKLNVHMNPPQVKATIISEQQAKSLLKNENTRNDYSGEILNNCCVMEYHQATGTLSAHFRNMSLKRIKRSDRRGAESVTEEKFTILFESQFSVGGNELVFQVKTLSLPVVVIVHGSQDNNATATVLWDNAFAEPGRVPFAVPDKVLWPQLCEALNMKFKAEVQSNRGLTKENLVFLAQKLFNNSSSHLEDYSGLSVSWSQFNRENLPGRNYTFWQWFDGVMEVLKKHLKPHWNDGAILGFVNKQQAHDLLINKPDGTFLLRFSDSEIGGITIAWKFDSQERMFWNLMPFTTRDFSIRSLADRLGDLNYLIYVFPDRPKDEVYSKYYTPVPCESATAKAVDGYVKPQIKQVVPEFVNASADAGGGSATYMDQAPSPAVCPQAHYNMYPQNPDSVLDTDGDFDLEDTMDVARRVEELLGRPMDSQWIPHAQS

[5] = target: T1, Signal transducer and activator of transcription 5B (Homo sapiens); assay: Inhibition of STAT5B phosphorylation in human MV4-11 cells incubated for 24 hrs by Western blotting analysis; assay type: cell-based
MV4-11 [6] = assay: Downregulation of STAT5B expression in human MV4-11 cells by Western blot analysis; assay type: functional, cell-based
KU812 cell line [7] = assay: Antileukemic activity against human KU812 cell line co-cultured with human HS-27A in presence of Imatinib; assay type: functional, cell-based
K562-IMA[r] [8] = assay: Antiproliferative activity against human Imatinib-resistant K562 cells assessed as inhibition of cell growth at 100 nM measured after 72 hrs by MTT assay; assay type: functional, cell-based
KU812 cell line [9] = assay: Antiproliferative activity against human KU812 cell line measured after 72 hrs by MTT assay; assay type: functional, cell-based
[10] = target: T1, Signal transducer and activator of transcription 5B (Homo sapiens); assay: Inhibition of STAT5B phosphorylation in human KU812 cell line incubated for 24 hrs by Western blotting analysis; assay type: cell-based
[11] = Potency index, ratio of Pimozide EC50 to test compound EC50 for antileukemic activity against human MOLM-13 cells assessed as inhibition of cell growth incubated for 48 hrs by MTT assay; assay type: functional
K562 [12] = assay: Antiproliferative activity against human K562 cells measured after 72 hrs by MTT assay; assay type: functional, cell-based
K562 [13] = assay: Antileukemic activity against human K562 assessed as cell viability incubated for 48 hrs by MTT assay; assay type: functional, cell-based; conditions: K562, 48 h
MOLM-13 [14] = assay: Antileukemic activity against human MOLM-13 assessed as cell viability incubated for 48 hrs by MTT assay; assay type: functional, cell-based; conditions: MOLM-13, 48 h
MV4-11 [15] = assay: Antileukemic activity against human MV4-11 cells co-cultured with human HS-27A in presence of Ara-c; assay type: functional, cell-based
[16] = target: T2, Signal transducer and activator of transcription 5A (Homo sapiens) (UniProt P42229); assay: Inhibition of STAT5A phosphorylation in human Imatinib-resistant K562 cells up to 5 uM incubated for 24 hrs by Western blotting analysis; assay type: cell-based
T2 sequence (whole entry): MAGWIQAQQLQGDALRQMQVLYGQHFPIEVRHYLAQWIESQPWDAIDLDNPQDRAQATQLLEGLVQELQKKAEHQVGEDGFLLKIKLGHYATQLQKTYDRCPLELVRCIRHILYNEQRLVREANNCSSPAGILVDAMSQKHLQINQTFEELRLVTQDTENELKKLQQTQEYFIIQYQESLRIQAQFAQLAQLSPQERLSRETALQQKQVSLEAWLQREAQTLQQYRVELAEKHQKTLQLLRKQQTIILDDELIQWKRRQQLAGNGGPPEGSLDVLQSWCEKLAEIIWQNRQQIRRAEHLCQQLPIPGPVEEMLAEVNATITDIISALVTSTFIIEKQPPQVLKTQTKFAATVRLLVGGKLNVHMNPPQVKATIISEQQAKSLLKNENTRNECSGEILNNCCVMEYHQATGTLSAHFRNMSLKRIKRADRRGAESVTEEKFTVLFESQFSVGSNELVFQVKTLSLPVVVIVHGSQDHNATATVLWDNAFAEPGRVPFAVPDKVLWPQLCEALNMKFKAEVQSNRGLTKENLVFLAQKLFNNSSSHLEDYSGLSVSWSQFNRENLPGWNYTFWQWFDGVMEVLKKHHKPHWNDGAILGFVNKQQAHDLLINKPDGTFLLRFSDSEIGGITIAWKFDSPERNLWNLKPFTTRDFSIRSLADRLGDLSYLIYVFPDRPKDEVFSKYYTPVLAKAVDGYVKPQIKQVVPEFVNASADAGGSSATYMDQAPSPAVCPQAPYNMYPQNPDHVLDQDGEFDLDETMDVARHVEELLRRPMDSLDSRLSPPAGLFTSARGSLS

[17] = target: T2, Signal transducer and activator of transcription 5A (Homo sapiens); assay: Inhibition of STAT5A phosphorylation in human MV4-11 cells incubated for 24 hrs by Western blotting analysis; assay type: cell-based
KCL-22 [18] = assay: Antileukemic activity against human KCL-22 assessed as cell viability incubated for 48 hrs by MTT assay; assay type: functional, cell-based; conditions: KCL-22, 48 h
[19] = Cytotoxicity against Bone marrow cell (unknown origin) assessed as cell viability incubated for 48 hrs by MTT assay; assay type: toxicity, cell-based; conditions: bone marrow cells (unknown origin)
[20] = Cytotoxicity against human HS-27A assessed as cell viability incubated for 48 hrs by MTT assay; assay type: toxicity, cell-based; conditions: HS-27A cells
KCL-22 [21] = assay: Antiproliferative activity against human KCL-22 cells measured after 72 hrs by MTT assay; assay type: functional, cell-based
MV4-11 [22] = assay: Downregulation of STAT5A expression in human MV4-11 cells by Western blot analysis; assay type: functional, cell-based
K562-IMA[r] [23] = assay: Downregulation of STAT5A expression in human Imatinib-resistant K562 cells by Western blot analysis; assay type: functional, cell-based
MV4-11 [24] = assay: Antileukemic activity against human MV4-11 cells co-cultured with human HS-27A in presence of Imatinib; assay type: functional, cell-based
[25] = target: T2, Signal transducer and activator of transcription 5A (Homo sapiens); assay: Inhibition of STAT5A phosphorylation in human KU812 cell line incubated for 24 hrs by Western blotting analysis; assay type: cell-based
[26] = Potency index, ratio of Pimozide EC50 to test compound EC50 for antileukemic activity against human KU812 cell line assessed as inhibition of cell growth incubated for 48 hrs by MTT assay; assay type: functional
MV4-11 [27] = assay: Antileukemic activity against human MV4-11 cell line assessed as inhibition of cell growth incubated for 48 hrs by MTT assay; assay type: functional, cell-based; conditions: MV4-11, 48 h
MOLM-13 [28] = assay: Antiproliferative activity against human MOLM-13 cells measured after 72 hrs by MTT assay; assay type: functional, cell-based
[29] = Potency index, ratio of Pimozide EC50 to test compound EC50 for antileukemic activity against human KCL-22 cells assessed as inhibition of cell growth incubated for 48 hrs by MTT assay; assay type: functional
BaF3 = assay: Downregulation of STAT5B N642H mutant expression in mouse BaF3 cells incubated for 24 hrs by Western blot analysis; assay type: functional, cell-based; conditions: dose <= 5.0 µM
KU812 [30] = assay: Downregulation of STAT5B expression in human KU812 cell line by Western blot analysis; assay type: functional, cell-based
MV4-11 [31] = assay: Potency index, ratio of Pimozide EC50 to test compound EC50 for antileukemic activity against human MV4-11 cells assessed as inhibition of cell growth incubated for 48 hrs by MTT assay; assay type: functional
K562-IMA[r] [32] = assay: Downregulation of STAT5B expression in human Imatinib-resistant K562 cells by Western blot analysis; assay type: functional, cell-based
KU812 cell line [33] = assay: Antileukemic activity against human KU812 cell line co-cultured with human HS-27A in presence of Ara-c; assay type: functional, cell-based
KU812 cell line [34] = assay: Antileukemic activity against human KU812 cell line assessed as inhibition of cell growth incubated for 48 hrs by MTT assay; assay type: functional, cell-based; conditions: KU812, 48 h

inhibition [4]: Active
inhibition [5]: Active
inhibition [10]: Active
EC50 (K562 [13]): 800 nM
EC50 (MOLM-13 [14]): 300 nM
inhibition [16]: Active
inhibition [17]: Active
inhibition [25]: Active
EC50 (MV4-11 [27]): 300 nM
Structure (SMILES): CC1(C)CCN(CCOc2ccc3[nH]ccc3c2)c2cccc(-c3cnc(N)nc3)c21
Activity (KU812 [1]): inactive
Activity (MV4-11 [2]): Active
Ratio EC50 [3]: 5
Activity (MV4-11 [6]): Active
Activity (KU812 cell line [7]): Active
Activity (K562-IMA[r] [8]): Active
Activity (KU812 cell line [9]): Active
Ratio EC50 [11]: 5
Activity (K562 [12]): Active
Activity (MV4-11 [15]): Active
EC50 (KCL-22 [18]): 500 nM
EC50 at 48 h [19]: 12 µM
EC50 at 48 h [20]: 44.1 µM
Activity (KCL-22 [21]): Active
Activity (MV4-11 [22]): inactive
Activity (K562-IMA[r] [23]): Active
Activity (MV4-11 [24]): Active
Ratio EC50 [26]: 5
Activity (MOLM-13 [28]): Active
Ratio EC50 [29]: 5
Activity (BaF3): Dose-dependent-effect
Activity (KU812 [30]): Active
Ratio EC50 (MV4-11 [31]): 5
Activity (K562-IMA[r] [32]): Active
Activity (KU812 cell line [33]): Active
EC50 (KU812 cell line [34]): 600 nM
